In patent publication US20160331754A1, “THERAPIES FOR TREATING CANCERS” (GILEAD SCIENCES, INC., priority 2014, published 2016):
“And” between values parts separate entries of the source, which are not always exact repeats. Equal values may be shown once.

Test system: WIL2-S
Assay: ADCC LDH release assay, purified NK cells against WIL2-S target cells
Format: cell-based, human
Settings: for Percentage of maximum ADCC, obinutuzumab: obinutuzumab 10 μg/mL; for Percentage of maximum ADCC, rituximab: rituximab 10 μg/mL
[1] = Compound B 7.81 nM, FcγRIIIa 158F/F
[2] = Compound B 7.81 nM, FcγRIIIa 158F/V
[3] = Compound B 7.81 nM, FcγRIIIa 158V/V
[4] = Compound B 15.63 nM, FcγRIIIa 158F/V
[5] = Compound B 15.63 nM, FcγRIIIa 158V/V
[6] = Compound B 31.25 nM, FcγRIIIa 158F/V
[7] = Compound B 31.25 nM, FcγRIIIa 158V/V
[8] = Compound B 62.5 nM, FcγRIIIa 158F/F
[9] = Compound B 62.5 nM, FcγRIIIa 158F/V
[10] = Compound B 62.5 nM, FcγRIIIa 158V/V
[11] = Compound B 125 nM, FcγRIIIa 158F/F
[12] = Compound B 125 nM, FcγRIIIa 158F/V
[13] = Compound B 125 nM, FcγRIIIa 158V/V
[14] = Compound B 250 nM, FcγRIIIa 158F/F
[15] = Compound B 250 nM, FcγRIIIa 158F/V
[16] = Compound B 250 nM, FcγRIIIa 158V/V
[17] = Compound B 500 nM, FcγRIIIa 158F/F
[18] = Compound B 500 nM, FcγRIIIa 158F/V
[19] = Compound B 500 nM, FcγRIIIa 158V/V
[20] = Compound B 1000 nM, FcγRIIIa 158F/F, n=2
[21] = Compound B 1000 nM, FcγRIIIa 158F/V, n=2

CC[C@H](Nc1ncnc2[nH]cnc12)c1nc2cccc(F)c2c(=O)n1-c1ccccc1 [Compound B, (S)-2-(1-((9H-purin-6-yl)amino)propyl)-5-fluoro-3-phenylquinazolin-4(3H)-one]
Percentage of maximum ADCC, obinutuzumab [1]: 89% and 107% | Percentage of maximum ADCC, obinutuzumab [2]: 109% and 107% | Percentage of maximum ADCC, obinutuzumab [3]: 94% and 90% | Percentage of maximum ADCC, rituximab [1]: 91% and 108% | Percentage of maximum ADCC, rituximab [2]: 104% and 110% | Percentage of maximum ADCC, rituximab [3]: 100% | Percentage of maximum ADCC, obinutuzumab (Compound B 15.63 nM, FcγRIIIa 158F/F): 80% and 108% | Percentage of maximum ADCC, obinutuzumab [4]: 106% and 109% | Percentage of maximum ADCC, obinutuzumab [5]: 93% and 90% | Percentage of maximum ADCC, rituximab [4]: 100% and 108% | Percentage of maximum ADCC, rituximab [5]: 98% and 101% | Percentage of maximum ADCC, obinutuzumab (Compound B 31.25 nM, FcγRIIIa 158F/F): 85% and 107% | Percentage of maximum ADCC, obinutuzumab [6]: 107% | Percentage of maximum ADCC, obinutuzumab [7]: 95% and 82% | Percentage of maximum ADCC, rituximab [6]: 100% and 104% | Percentage of maximum ADCC, rituximab [7]: 94% | Percentage of maximum ADCC, obinutuzumab [8]: 88% and 108% | Percentage of maximum ADCC, obinutuzumab [9]: 112% and 103% | Percentage of maximum ADCC, obinutuzumab [10]: 98% and 78% | Percentage of maximum ADCC, rituximab [8]: 88% and 108% | Percentage of maximum ADCC, rituximab [9]: 101% and 107% | Percentage of maximum ADCC, rituximab [10]: 96% and 99% | Percentage of maximum ADCC, obinutuzumab [11]: 87% and 110% | Percentage of maximum ADCC, obinutuzumab [12]: 111% and 105% | Percentage of maximum ADCC, obinutuzumab [13]: 94% and 84% | Percentage of maximum ADCC, rituximab [11]: 87% and 108% | Percentage of maximum ADCC, rituximab [12]: 105% and 102% | Percentage of maximum ADCC, rituximab [13]: 95% and 98% | Percentage of maximum ADCC, obinutuzumab [14]: 91% and 109% | Percentage of maximum ADCC, obinutuzumab [15]: 106% and 102% | Percentage of maximum ADCC, obinutuzumab [16]: 99% and 89% | Percentage of maximum ADCC, rituximab [14]: 87% and 109% | Percentage of maximum ADCC, rituximab [15]: 98% and 101% | Percentage of maximum ADCC, rituximab [16]: 95% and 94% | Percentage of maximum ADCC, obinutuzumab [17]: 83% and 104% | Percentage of maximum ADCC, obinutuzumab [18]: 106% and 94% | Percentage of maximum ADCC, obinutuzumab [19]: 92% and 79% | Percentage of maximum ADCC, rituximab [17]: 84% and 105% | Percentage of maximum ADCC, rituximab [18]: 95% and 99% | Percentage of maximum ADCC, rituximab [19]: 91% and 96% | Percentage of maximum ADCC, obinutuzumab [20]: 79% and 103% | Percentage of maximum ADCC, obinutuzumab [21]: 105% and 93% | Percentage of maximum ADCC, rituximab [20]: 80% and 100% | Percentage of maximum ADCC, rituximab [21]: 95% and 88% | Percentage of maximum ADCC, rituximab (Compound B 1000 nM, FcγRIIIa 158V/V, n=2): 87% and 84% | effect on obinutuzumab-mediated ADCC (WIL2-S, E:T=10:1, 4 h, n=9): did not affect | effect on NK-mediated ADCC (varying E:T ratios, antibody 10 μg/mL, n=3): did not affect
